Experimental data: US7414023B2, “Peptide ligands for prostate specific antigen” (Licentia Ltd., priority 2000, dated 2008)
Bridge positions count the residues as written; N and C are the ends. Peptide text beside a SMILES is read from it.

How the values were obtained:
Design in all cases: PSA was purified from human seminal fluid as described previously (3); from tissue; host or cells: human seminal fluid
PSA [1] = target: T1, PSA (Homo sapiens, UniProt P07288); test: PSA activity measurements with modified peptides, substrate S-2586 (Example 5); assay type: biochemical; details: ratio of OD 405 nm of PSA-peptide to PSA alone after 60 minutes; ratio > 1.1 interpreted as active
Protocol: PSA activity measurements: The effect of different peptides on the activity of PSA was studied by using chymotrypsin substrate S-2586 (MeO-Suc-Arg-Pro-Tyr-pNA) (Chromogenix, Mölndal, Sweden). 77 pmoles (2 μg) of PSA, substrate and 10 μmoles of different peptides were incubated in Tris-buffer (10 mM Tris and 150 mM NaCl at pH 7.8) with 0.2 mM concentration of the substrate at room temperature. PSA reaction without any peptide was used as basic level control. Reaction was measured after 60 minutes incubation at […] using Multiscan RC photometer (Labsystems, Finland). The effect of the peptides was calculated as a ratio from the OD value of PSA-peptide complex to PSA alone after 60 minutes incubation.

PSA [2] = target: T1, PSA; test: GST-peptide IFMA: binding of GST-peptides to PSA captured by MAb 5E4; details: for binding to PSA in GST-peptide IFMA (in words): GST fusion proteins; for Maximal binding (CPS): GST-peptide fusion proteins, Eu-labelled anti GST antibody as tracer
Protocol: After washing the binding of GST-peptide was quantified by IFMA using an Eu-labelled anti GST antibody as tracer. Data represent mean values from duplicate wells ±standard error (SE).
The solid phase antibodies used in the IFMAs were coated onto microtitration wells at a concentration of 5 μg/mL in TBS for 16 h at 22° C., the solution was discarded and the wells were saturated with 10 g/L bovine serum albumin in TBS for 3 h at 22° C. The antibodies used as tracers were labeled with a Eu^3+ chelate as described previously (26). The assay buffer was 50 mM Tris-HCL, pH 7.7, 150 mM NaCl, 33.3 μM bovine serum albumin, 1 μM bovine globulin.
The binding of individual phage clones to PSA was tested by IFMA (phage IFMA). In the phage IFMA, about 30 ng of PSA was added to MAb 5E4 coated wells for 1 h. After washing (Buffer: 150 mM NaCl, 7.7 mM NaN3, 0.2 g/L Tween 20), 15 μL of phage and 200 μl assay buffer was added. After incubation for 1 h, the wells were washed and filled with 200 μl of assay buffer containing 50 ng europium-labeled anti phage monoclonal antibody recognizing the M13 coat protein of the phage. After incubation for 60 min, the wells were washed 4 times, and enhancement solution (EG&G-Wallac) was added. The fluorescence was quantified with a 1234 DELFIA Research fluorometer (EG&G-Wallac). Binding of GST-peptide to PSA was determined by an IFMA (GST-peptide IFMA) similar to the one for phage peptides except that Eu^3+-labeled antibody to GST was used. Various amounts of GST-peptide or wild type GST were added to wells containing captured PSA in 200 μL of assay buffer and incubated for 1 h. To test the effect of Zn^2+ on the binding between GST-peptide and PSA, various concentrations of Zn^2+ (1-200 μM) were added to the buffer in the incubation step of GST-peptide and PSA. In competition experiments, GST-peptide (167 nM) or wild type GST were first incubated with increasing amounts of PSA (0-333 nM) in 0.5% BSA-TBS buffer for 60 min, then added to wells containing PSA captured by MAb 5E4. After incubation for 1 h the wells were washed and Eu^3+-labeled anti GST antibody was added. After further incubation and washing the bound fluorescence was measured as described above. When assessing the binding of the GST-peptides to other proteinases, including chymotrypsin, cathepsin G, trypsin, and kallikrein, these proteinases were captured by their specific antibodies coated to the microtitration well. Recombinant hK2 was captured by MAb 5E4, which is known to bind hK2 (24). For assessing the binding of the GST-peptides with complexes of PSA, including PSA-ACT and PSA-α1-protease inhibitor (PSA-API) (28), the complexes were captured by antibodies against ACT and API, respectively. After capturing the various proteinases or PSA complexes, GST-peptide was added and binding was monitored as described above for the GST-peptide IFMA.

PSA [3] = target: T1, PSA; test: Surface plasmon resonance, GST-peptides on PSA captured by MAb H117; assay type: binding
Protocol: The binding kinetics of selected peptides to PSA was studied by surface plasmon resonance (29) on a BIAcore 2000™ instrument (Biacore AB, Uppsala, Sweden). PSA was captured to the solid phase by MAb H117 which binds to the same epitope as MAb 5E4 (30). The capture antibody was covalently coupled onto the surface of the CM5 sensor chip according to the manufacturer's instructions, using coupling levels of 5000 resonance units (RU). PSA was captured by injection of 416 nM of PSA in PBS, 4-min contact time (5 μl/min) and 60 min wash (20 μl/min) providing ligand levels in the range 500-600 RUs. Each analyte (GST-peptide), at various concentrations, was injected for 1 min at 20 μl/min flow rate. […] PSA-binding to either chemically activated/deactivated blank surface or MAb H117 alone was subtracted as a non-specific interaction. Regeneration after each measurement cycle was done with 3×0.5 min injections of 10 mM HCl. Binding data were analyzed using the BIAEVALUATION software.
The association rate constat (ka), dissociation rate constant (kd) and equilibrium dissociation constant (KD) for GST-peptides to PSA were measured by surface plasmon resonance. […]
The binding kinetics and affinity of the peptides to PSA was estimated by surface plasmon resonance. Increasing concentrations of GST-peptides were injected over PSA captured by MAb H117. Background-corrected sensorgrams were fitted to single-site interaction between GST-peptide and PSA using three different GST-peptide concentrations and the rate equation: d(GST-peptide:PSA)/dt=ka(GST-peptide)×(PSA)−kd(GST-peptide:PSA).

[4] = average at 3 analyte concentrations
[5] = zinc 0 μM, average of 3 fits, analyte 3.4-8.5 μM
[6] = zinc 1 μM, single fit, 3.4 μM peptide
[7] = zinc 10 μM, single fit, 3.4 μM peptide
[8] = zinc 30 μM, single fit, 3.4 μM peptide

T1 sequence (P07288 25-261): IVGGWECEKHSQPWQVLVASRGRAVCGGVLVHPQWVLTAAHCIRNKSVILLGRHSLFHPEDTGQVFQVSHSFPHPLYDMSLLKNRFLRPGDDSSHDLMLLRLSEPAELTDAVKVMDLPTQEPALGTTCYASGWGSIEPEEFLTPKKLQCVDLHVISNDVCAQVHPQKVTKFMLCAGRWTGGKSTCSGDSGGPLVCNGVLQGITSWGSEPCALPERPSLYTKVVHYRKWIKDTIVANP

PSA-peptide/PSA ratio (PSA [1]) | binding to PSA in GST-peptide IFMA (in words) (PSA [2]) | Maximal binding (CPS) (PSA [2]) | kd × 10^−3 (1/s) (PSA [3]; [4]) | kd × 10^−3 (1/s) (PSA [3]; [5]) | kd × 10^−3 (1/s) (PSA [3]; [6]) | increase (fold) of affinity (PSA [3]; zinc 10 μM versus 0 μM) [fold] | kd × 10^−3 (1/s) (PSA [3]; [7]) | increase (fold) of affinity (PSA [3]; zinc 30 μM versus 0 μM) [fold] | kd × 10^−3 (1/s) (PSA [3]; [8]) | ka × 10^3 (1/Ms) (PSA [3]; [4]) | Kd (PSA [3]; [5]) [µM] | ka × 10^3 (1/Ms) (PSA [3]; [5]) | increase (fold) of affinity (PSA [3]; zinc 1 μM versus 0 μM) [fold] | ka × 10^3 (1/Ms) (PSA [3]; [6]) | ka × 10^3 (1/Ms) (PSA [3]; [7]) | Kd (PSA [3]; [8]) [µM] | ka × 10^3 (1/Ms) (PSA [3]; [8]) | Compound
3.0 | less efficiently than C-4 | 428000 | 57 × 10^−3 1/s | 57 × 10^−3 1/s | 3.5 × 10^−3 1/s | 6 | 1.6 × 10^−3 1/s | 4.7 | 0.6 × 10^−3 1/s | – | – | – | – | – | – | – | – | CC(C)C[C@@H]1NC(=O)[C@H](Cc2ccc(O)cc2)NC(=O)[C@H](CC(=O)O)NC(=O)[C@H](Cc2ccc(O)cc2)NC(=O)[C@H](CC(N)=O)NC(=O)[C@H](Cc2c[nH]cn2)NC(=O)[C@H](C)NC(=O)[C@H](Cc2ccccc2)NC(=O)[C@H](C(C)C)NC(=O)[C@@H](N)CSSC[C@@H](C(=O)O)NC(=O)[C@H](C(C)C)NC1=O [Peptide B-2] (H-CVFAHNYDYLVC-OH; disulfide 1-12; N-terminus assumed)
2.3 | less efficiently than C-4 | 219000 | 80 × 10^−3 1/s | 80 × 10^−3 1/s | 4.7 × 10^−3 1/s | 5.9 | 1.6 × 10^−3 1/s | 7.7 | 2.0 × 10^−3 1/s | 10.3 × 10^3 1/Ms | 7.8 | 10.3 × 10^3 1/Ms | 3 | 1.8 × 10^3 1/Ms | 1.2 × 10^3 1/Ms | 1 | 1.9 × 10^3 1/Ms | CVFTSDYAFC [Peptide A-1]
